{"source": "patent US9034895B2", "about": "“Composition and methods for treating glioblastoma” (University of Washington Through its Center for …, priority 2010, dated 2015)", "key": {"DBT tumors": {"system": "DBT tumors", "experiment": "Lymphocyte and brain macrophage invasion of DBT tumors implanted in mouse brain", "format": "in vivo, mice (BALB/c)", "conditions": "daily i.p. (40 mg/Kg per FIG. 7), tumors implanted three weeks in mouse brain", "protocol": "Effect of JWH-451 on the immune cell invasion of syngenic mouse model of astrocytomas tumors (mouse astrocytoma cell implanted into the brain of wild type mice hosts with intact immune systems) was measured. Briefly, mice (BALB/c, 8 week-old, male, Charles River) were used for this study and housed under specific-pathogen-free conditions for at least one week prior to surgery. Twenty-four hours before surgery, 5×10^6 DBT cells were harvested in 10 ml of DMEM supplemented with 10% heat-inactivated FBS, 10 U/ml penicillin and 10 μg/ml streptomycin and seeded in T75 cm^2 cell culture flasks (one flask per mouse). Just before surgery, cells from one flask were detached with trypsin-EDTA, recovered in DMEM supplemented with 10% heat-inactivated FBS, centrifuged/rinsed twice with MEM (serum free) and resuspended at 10^6 cells/u1 of ice-cold MEM (ready for injection). Mice were anesthetized with ketamine/xylazine (given […] i.p., 130 mg/kg ketamine/8.8 mg/kg xylazine) and placed in a stereotactic instrument (David Kopf Instruments, CA) on an isothermal pad (Deltaphase®, Braintree Scientific, Inc, Braintree, Mass.). After midline incision of the scalp, a 25-G needle was used to perform a craniostomy at 2 mm cranial from bregma and 1.5 mm left lateral. […]"}, "CB1": {"biological_target": "T1, CB1 (Mus musculus, UniProt P47746)", "T1 construct": "plasmids containing full coding region of mouse CB1 and CB2; expressed in transfected cells", "T1 sequence (P47746 whole entry, the tested form may be a part)": "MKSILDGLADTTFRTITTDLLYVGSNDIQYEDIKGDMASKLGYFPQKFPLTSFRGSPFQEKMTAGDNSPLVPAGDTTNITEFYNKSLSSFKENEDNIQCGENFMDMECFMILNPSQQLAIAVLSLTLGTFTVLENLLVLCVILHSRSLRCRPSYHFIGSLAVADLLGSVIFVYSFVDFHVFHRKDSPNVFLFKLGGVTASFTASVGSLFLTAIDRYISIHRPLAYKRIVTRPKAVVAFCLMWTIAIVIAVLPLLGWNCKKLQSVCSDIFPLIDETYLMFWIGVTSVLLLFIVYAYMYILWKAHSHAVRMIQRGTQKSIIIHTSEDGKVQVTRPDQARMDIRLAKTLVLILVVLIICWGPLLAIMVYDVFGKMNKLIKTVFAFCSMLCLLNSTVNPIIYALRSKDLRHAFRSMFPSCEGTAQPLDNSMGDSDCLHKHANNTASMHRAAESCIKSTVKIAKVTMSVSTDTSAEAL", "experiment": "Radioligand competition binding, [3H]-CP55940, CB1-expressing HEK293 membranes", "protocol": "Stable CB1 and CB2 expressing HEK293 cell lines were generated using plasmids containing full coding region of mouse CB1 and CB2.\nFragments were amplified from total RNA of cell lines by reverse transcriptase-polymerase chain reaction (RT-PCR). Sequence was confirmed and the fragment was cloned into the EcoRI site of the pIRES2-eGFP-express vector. Cells were grown to approximately 80% confluence in 10 cm cell culture dishes, transfected with the cDNA pIRES-eGFP-vector containing the murine CB1 or CB2 receptor using LipofectAMINE™ 2000 reagent in the serum-free media Opti-MEM 1 according to the manufacturer's description. Cells were subject to FACS sorting 48 h after transfection and single cell sorted based on dsRed expression into 96-well plates. Of the dsRed expressing positive clones, 3 were validated for CB1 and CB2 protein expression by radioligand binding analysis (methods discussed below).\nCells were grown to 90% confluence, rinsed twice with 1×PBS and stored at −80° C. until further use. To prepare crude cellular membrane fractions, dishes were removed from −80° C. and thawed at room temperature for 5 min. Once thawed, cells were lysed with ice-cold homogenization buffer (50 mM Tris, 1 mM EDTA, 3 mM MgCl2) and gently scraped from the dish. Total cell lysates from 3-5 dishes were collected on ice in 3 ml of ice-cold homogenization buffer. Cells were homogenized at 6,500 rpm (PRO Scientific, Oxford, Conn.) twice for 10 sec and centrifuged at 11,500 rpm for 20 min at 4° C. Supernatants were discarded and cell pellets were resuspended in homogenization buffer and triturated 10 times in ice-cold homogenization buffer. Crude cellular membrane homogenates were stored at −80° C. until further use. On the day of experiments, frozen homogenates were thawed at room temperature, gently triturated 10 times and subsequently dounce homogenized in a 7 ml glass tissue grinder (Wheaton Science Products, Millville, N.J.) by 5 strokes while on ice. […]"}}, "data": [{"smiles": "CCn1c(C)c(C(=O)c2ccc(C)c3ccccc23)c2ccccc21", "note": "[JWH-451, 1-Ethyl-2-methyl-3-(4-methyl-1-napthoyl)indole]", "values": [{"measurement": "brain macrophage density / number invading DBT tumors", "setting": "DBT tumors", "value": "two fold increase"}, {"measurement": "lymphocyte density / number invading DBT tumors", "setting": "DBT tumors", "value": "two fold increase"}, {"measurement": "competition for [3H]-CP55940 binding at CB1", "setting": "CB1; FIG. 2 (CB1 not shown)", "value": "does not"}, {"measurement": "lower affinity at CB1 receptors than WIN55212-2", "setting": "CB1; relative to WIN55212-2", "value": 100, "unit": "fold"}]}]}
